Laboratory results reported in US10800792B2, “Inhibitors of Bruton's tyrosine kinase and method of their use” (JANSSEN PHARMACEUTICA NV, priority 2015, dated 2020).

Molecular target: unphosphorylated-BTK kinase domain (UP-BTK), GST-tagged human BTK (389-659aa) (Homo sapiens (Human), UniProt Q06187)
Assay: BTK kinase Lanthascreen binding assay
Settings: unphosphorylated-BTK kinase domain, 50 nM Tracer 236, 60 minutes, pIC50 = negative log of the IC50 in molar
In short: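 Compound binding to the unphosphorylated kinase domain was monitored by displacement of a fluorescently labelled tracer in a Lanthascreen format. Potency is given as pIC50, the negative log of the molar IC50.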

unphosphorylated-BTK kinase domain (UP-BTK), GST-tagged human BTK (389-659aa), sequence (Q06187 389-659): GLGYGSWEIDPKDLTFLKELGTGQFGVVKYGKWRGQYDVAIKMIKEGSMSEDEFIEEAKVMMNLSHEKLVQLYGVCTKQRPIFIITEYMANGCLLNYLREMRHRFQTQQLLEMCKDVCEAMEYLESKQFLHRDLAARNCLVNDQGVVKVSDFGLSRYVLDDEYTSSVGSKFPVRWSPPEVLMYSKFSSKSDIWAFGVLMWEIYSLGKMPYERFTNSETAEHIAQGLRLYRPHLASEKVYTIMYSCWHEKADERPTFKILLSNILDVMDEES

Row | BTK_I_binding pIC50 | Compound | IC50 (read-out: BTK_I_binding pIC50 (converted)) [nM]
1 | <5 | O=C(N[C@@H]1CCCNC1)c1sc2nccc3c2c1NC(=O)N3c1cccc(C(F)(F)F)c1 [Example 347, (R)-4-Oxo-N-(piperidin-3-yl)-5-(3-(trifluoromethyl)phenyl)-4,5-dihydro-3H-1-thia-3,5,8-triazaacenaphthylene-2-carboxamide] | –
2 | <5 | O=C(N[C@@H]1CCCNC1)c1sc2nccc3c2c1NC(=O)N3c1ccccc1 [Example 348, (R)-4-Oxo-5-phenyl-N-(piperidin-3-yl)-4,5-dihydro-3H-1-thia-3,5,8-triazaacenaphthylene-2-carboxamide] | –
3 | <5 | CN1CCC[C@@H](NC(=O)c2sc3nccc4c3c2NC(=O)N4c2ccc(Oc3ccccc3)cc2C(F)(F)F)C1 [Example 349, (R)—N-(1-Methylpiperidin-3-yl)-4-oxo-5-(4-phenoxy-2-(trifluoromethyl)phenyl)-4,5-dihydro-3H-1-thia-3,5,8-triazaacenaphthylene-2-carboxamide] | –
4 | <5 | Cc1cc(Oc2ccccc2)nnc1N1C(=O)Nc2c(C(=O)N[C@@H]3CCCN(C)C3)sc3nccc1c23 [Example 350, (R)-5-(4-Methyl-6-phenoxypyridazin-3-yl)-N-(1-methylpiperidin-3-yl)-4-oxo-4,5-dihydro-3H-1-thia-3,5,8-triazaacenaphthylene-2-carboxamide] | –
5 | <5 | C=CC(=O)N1CC[C@@H](NC(=O)c2sc3nccc4c3c2NC(=O)N4c2nnc(Oc3ccccc3)cc2C)C1 [Example 351, (R)—N-(1-Acryloylpyrrolidin-3-yl)-5-(4-methyl-6-phenoxypyridazin-3-yl)-4-oxo-4,5-dihydro-3H-1-thia-3,5,8-triazaacenaphthylene-2-carboxamide] | –
6 | <5 | Cc1ccccc1N1C(=O)Nc2c(C(=O)N[C@@H]3CCCN(C)C3)sc3nccc1c23 [Example 352, (R)—N-(1-Methylpiperidin-3-yl)-4-oxo-5-(o-tolyl)-4,5-dihydro-3H-1-thia-3,5,8-triazaacenaphthylene-2-carboxamide] | –
7 | <5 | Cc1cc(Oc2ccncc2)ccc1N1C(=O)Nc2c(C(=O)N[C@@H]3CCCN(C)C3)sc3nccc1c23 [Example 354, (R)-5-(2-Methyl-4-(pyridin-4-yloxy)phenyl)-N-(1-methylpiperidin-3-yl)-4-oxo-4,5-dihydro-3H-1-thia-3,5,8-triazaacenaphthylene-2-carboxamide] | –
8 | <5 | CN(C)c1cccc(N2C(=O)Nc3c(C(=O)N[C@@H]4CCCNC4)sc4nccc2c34)c1 [Example 356, (R)-5-(3-(Dimethylamino)phenyl)-4-oxo-N-(piperidin-3-yl)-4,5-dihydro-3H-1-thia-3,5,8-triazaacenaphthylene-2-carboxamide] | –
9 | 5.1 | C=CC(=O)N1CCC[C@@H](NC(=O)c2sc3nccc4c3c2NC(=O)N4C(C)C)C1 [Example 357, (R)—N-(1-Acryloylpiperidin-3-yl)-5-isopropyl-4-oxo-4,5-dihydro-3H-1-thia-3,5,8-triazaacenaphthylene-2-carboxamide] | –
10 | 5.2 | C=CC(=O)N1CCC[C@@H](NC(=O)c2sc3nccc4c3c2NC(=O)N4c2cccnc2C)C1 [Example 358, (R)—N-(1-Acryloylpiperidin-3-yl)-5-(2-methylpyridin-3-yl)-4-oxo-4,5-dihydro-3H-1-thia-3,5,8-triazaacenaphthylene-2-carboxamide] | –
11 | <5 | Cc1ncccc1N1C(=O)Nc2c(C(=O)N[C@@H]3CCCNC3)sc3nccc1c23 [Example 359, (R)-5-(2-Methylpyridin-3-yl)-4-oxo-N-(piperidin-3-yl)-4,5-dihydro-3H-1-thia-3,5,8-triazaacenaphthylene-2-carboxamide] | –
12 | 6.7 | C=CC(=O)N1CCC[C@@H](NC(=O)c2sc3nccc4c3c2NC(=O)N4c2ccc(Cl)c(Cl)c2)C1 [Example 360, (R)—N-(1-Acryloylpiperidin-3-yl)-5-(3,4-dichlorophenyl)-4-oxo-4,5-dihydro-3H-1-thia-3,5,8-triazaacenaphthylene-2-carboxamide] | –
13 | <5 | CC(C)N1C(=O)Nc2c(C(=O)N[C@@H]3CCCNC3)sc3nccc1c23 [Example 361, (R)-5-Isopropyl-4-oxo-N-(piperidin-3-yl)-4,5-dihydro-3H-1-thia-3,5,8-triazaacenaphthylene-2-carboxamide] | –
14 | 5.4 | C=CC(=O)N1CCC[C@@H](NC(=O)c2sc3nccc4c3c2NC(=O)N4c2ccc(Cl)c(C(F)(F)F)c2)C1 [Example 362, (R)—N-(1-Acryloylpiperidin-3-yl)-5-(4-chloro-3-(trifluoromethyl)phenyl)-4-oxo-4,5-dihydro-3H-1-thia-3,5,8-triazaacenaphthylene-2-carboxamide] | –
15 | 6.9 | COC(C)(C)CC(=O)N1CCC[C@@H](NC(=O)c2sc3nccc4c3c2NC(=O)N4c2ccc(Oc3ccccc3)cc2C)C1 [Example 363, (R)—N-(1-(3-Methoxy-3-methylbutanoyl)piperidin-3-yl)-5-(2-methyl-4-phenoxyphenyl)-4-oxo-4,5-dihydro-3H-1-thia-3,5,8-triazaacenaphthylene-2-carboxamide] | –
16 | 6.8 | CC(=O)N/C=C\C(=O)N1CCC[C@@H](NC(=O)c2sc3nccc4c3c2NC(=O)N4c2ccc(Oc3ccccc3)cc2C)C1 [Example 364, (R,Z)—N-(1-(3-Acetamidoacryloyl)piperidin-3-yl)-5-(2-methyl-4-phenoxyphenyl)-4-oxo-4,5-dihydro-3H-1-thia-3,5,8-triazaacenaphthylene-2-carboxamide] | –
17 | 7.6 | Cc1cc(Oc2ccccc2)ccc1N1C(=O)Nc2c(C(=O)N[C@@H]3CCN(C(=O)/C=C/CN(C)C)C3)sc3nccc1c23 [Example 368, (R,E)-N-(1-(4-(Dimethylamino)but-2-enoyl)pyrrolidin-3-yl)-5-(2-methyl-4-phenoxyphenyl)-4-oxo-4,5-dihydro-3H-1-thia-3,5,8-triazaacenaphthylene-2-carboxamide] | –
18 | 7.8 | C=CS(=O)(=O)N1CC[C@@H](NC(=O)c2sc3nccc4c3c2NC(=O)N4c2ccc(Oc3ccccc3)cc2C)C1 [Example 369, (R)-5-(2-Methyl-4-phenoxyphenyl)-4-oxo-N-(1-(vinylsulfonyl)pyrrolidin-3-yl)-4,5-dihydro-3H-1-thia-3,5,8-triazaacenaphthylene-2-carboxamide] | –
19 | – | [2H]C([2H])([2H])N1CCC[C@@H](NC(=O)c2sc3nccc4c3c2NC(=O)N4c2ccc(Oc3ccccc3)cc2C)C1 [Example 370, (R)-5-(2-Methyl-4-phenoxyphenyl)-N-(1-trideuteriomethylpiperidin-3-yl)-4-oxo-4,5-dihydro-3H-1-thia-3,5,8-triazaacenaphthylene-2-carboxamide] | 100
20 | 7.0 | Cc1cc(Oc2ccccc2)ccc1N1C(=O)Nc2c(C(=O)N[C@@H]3CCCN(C(=O)/C=C/CN(C)C)C3)sc3nccc1c23 [Example 371, (R,E)-N-(1-(4-(Dimethylamino)but-2-enoyl)piperidin-3-yl)-5-(2-methyl-4-phenoxyphenyl)-4-oxo-4,5-dihydro-3H-1-thia-3,5,8-triazaacenaphthylene-2-carboxamide] | –
21 | 7.6 | C=CS(=O)(=O)N1CCC[C@@H](NC(=O)c2sc3nccc4c3c2NC(=O)N4c2ccc(Oc3ccccc3)cc2C)C1 [Example 372, (R)-5-(2-Methyl-4-phenoxyphenyl)-4-oxo-N-(1-(vinylsulfonyl)piperidin-3-yl)-4,5-dihydro-3H-1-thia-3,5,8-triazaacenaphthylene-2-carboxamide] | –
